Experimental data taken from PubChem BioAssay (NCI).
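Dose response: 5 concentrations. Exposure: 48 h. Format: 96-well plates. Endpoint: linear interpolation; highest concentration if not reached. The concentration for full growth arrest is given as TGI.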

Key:
Experiment in all cases: NCI-60 cell line screen, 48 h
786-0 renal = system: 786-0 renal
A498 renal = system: A498 renal
A549 NSCLC = system: A549 NSCLC
ACHN renal = system: ACHN renal
BT-549 breast = system: BT-549 breast
CAKI-1 renal = system: CAKI-1 renal
CCRF-CEM leukemia = system: CCRF-CEM leukemia
COLO 205 colon = system: COLO 205 colon
DU-145 prostate = system: DU-145 prostate
EKVX NSCLC = system: EKVX NSCLC
HCT-116 colon = system: HCT-116 colon
HCT-15 colon = system: HCT-15 colon
HL-60(TB) leukemia = system: HL-60(TB) leukemia
HOP-62 NSCLC = system: HOP-62 NSCLC
HOP-92 NSCLC = system: HOP-92 NSCLC
HS 578T breast = system: HS 578T breast
HT29 colon = system: HT29 colon
IGROV1 ovarian = system: IGROV1 ovarian
KM12 colon = system: KM12 colon
LOX IMVI melanoma = system: LOX IMVI melanoma
M14 melanoma = system: M14 melanoma
MALME-3M melanoma = system: MALME-3M melanoma
MCF7 breast = system: MCF7 breast
MDA-MB-435 = system: MDA-MB-435
MDA-N = system: MDA-N
MOLT-4 leukemia = system: MOLT-4 leukemia
NCI-H226 lung = system: NCI-H226 lung
NCI-H23 lung = system: NCI-H23 lung
NCI-H460 lung = system: NCI-H460 lung
NCI-H522 lung = system: NCI-H522 lung
NCI/ADR-RES ovarian = system: NCI/ADR-RES ovarian
OVCAR-3 ovarian = system: OVCAR-3 ovarian
OVCAR-4 ovarian = system: OVCAR-4 ovarian
OVCAR-5 ovarian = system: OVCAR-5 ovarian
OVCAR-8 ovarian = system: OVCAR-8 ovarian
PC-3 prostate = system: PC-3 prostate
RXF 393 renal = system: RXF 393 renal
SF-268 CNS = system: SF-268 CNS
SF-295 CNS = system: SF-295 CNS
SF-539 CNS = system: SF-539 CNS
SK-MEL-2 melanoma = system: SK-MEL-2 melanoma
SK-MEL-28 melanoma = system: SK-MEL-28 melanoma
SK-MEL-5 melanoma = system: SK-MEL-5 melanoma
SK-OV-3 ovarian = system: SK-OV-3 ovarian
SN12C renal = system: SN12C renal
SNB-19 CNS = system: SNB-19 CNS
SNB-75 CNS = system: SNB-75 CNS
SR leukemia = system: SR leukemia
SW-620 colon = system: SW-620 colon
T-47D breast = system: T-47D breast
TK-10 renal = system: TK-10 renal
U251 CNS = system: U251 CNS
UACC-257 melanoma = system: UACC-257 melanoma
UACC-62 melanoma = system: UACC-62 melanoma
UO-31 renal = system: UO-31 renal
HCC-2998 colon = system: HCC-2998 colon
K-562 leukemia = system: K-562 leukemia
MDA-MB-231 breast = system: MDA-MB-231 breast
RPMI-8226 leukemia = system: RPMI-8226 leukemia

## COc1cc(Oc2nc3cc(F)c(F)cc3nc2-c2ccccc2)cc(OC)c1OC
786-0 renal
  TGI: > 100 µM
A498 renal
  TGI: > 100 µM
A549 NSCLC
  TGI: > 100 µM
ACHN renal
  TGI: > 100 µM
BT-549 breast
  TGI: > 100 µM
CAKI-1 renal
  TGI: > 100 µM
CCRF-CEM leukemia
  TGI: > 100 µM
COLO 205 colon
  TGI: > 100 µM
DU-145 prostate
  TGI: > 100 µM
EKVX NSCLC
  TGI: > 100 µM
HCT-116 colon
  TGI: > 100 µM
HCT-15 colon
  TGI: > 100 µM
HL-60(TB) leukemia
  TGI: > 100 µM
HOP-62 NSCLC
  TGI: > 100 µM
HOP-92 NSCLC
  TGI: > 100 µM
HS 578T breast
  TGI: > 100 µM
HT29 colon
  TGI: > 100 µM
IGROV1 ovarian
  TGI: > 100 µM
KM12 colon
  TGI: > 100 µM
LOX IMVI melanoma
  TGI: > 100 µM
M14 melanoma
  TGI: > 100 µM
MALME-3M melanoma
  TGI: 96.9 µM
MCF7 breast
  TGI: > 100 µM
MDA-MB-435
  TGI: > 100 µM
MDA-N
  TGI: > 100 µM
MOLT-4 leukemia
  TGI: > 100 µM
NCI-H226 lung
  TGI: > 100 µM
NCI-H23 lung
  TGI: > 100 µM
NCI-H460 lung
  TGI: > 100 µM
NCI-H522 lung
  TGI: > 100 µM
NCI/ADR-RES ovarian
  TGI: > 100 µM
OVCAR-3 ovarian
  TGI: > 100 µM
OVCAR-4 ovarian
  TGI: > 100 µM
OVCAR-5 ovarian
  TGI: > 100 µM
OVCAR-8 ovarian
  TGI: > 100 µM
PC-3 prostate
  TGI: > 100 µM
RXF 393 renal
  TGI: > 100 µM
SF-268 CNS
  TGI: > 100 µM
SF-295 CNS
  TGI: > 100 µM
SF-539 CNS
  TGI: 58.7 µM
SK-MEL-2 melanoma
  TGI: > 100 µM
SK-MEL-28 melanoma
  TGI: > 100 µM
SK-MEL-5 melanoma
  TGI: 75.3 µM
SK-OV-3 ovarian
  TGI: > 100 µM
SN12C renal
  TGI: > 100 µM
SNB-19 CNS
  TGI: > 100 µM
SNB-75 CNS
  TGI: 51.2 µM
SR leukemia
  TGI: > 100 µM
SW-620 colon
  TGI: > 100 µM
T-47D breast
  TGI: > 100 µM
TK-10 renal
  TGI: > 100 µM
U251 CNS
  TGI: > 100 µM
UACC-257 melanoma
  TGI: > 100 µM
UACC-62 melanoma
  TGI: > 100 µM
UO-31 renal
  TGI: > 100 µM

## CC(CNC(N)=O)NC(N)=O (stereo not drawn)
786-0 renal
  TGI: > 100 µM
A498 renal
  TGI: > 100 µM
A549 NSCLC
  TGI: > 100 µM
ACHN renal
  TGI: > 100 µM
BT-549 breast
  TGI: > 100 µM
CAKI-1 renal
  TGI: > 100 µM
CCRF-CEM leukemia
  TGI: > 100 µM
COLO 205 colon
  TGI: > 100 µM
DU-145 prostate
  TGI: > 100 µM
EKVX NSCLC
  TGI: > 100 µM
HCC-2998 colon
  TGI: > 100 µM
HCT-116 colon
  TGI: > 100 µM
HCT-15 colon
  TGI: > 100 µM
HL-60(TB) leukemia
  TGI: > 100 µM
HOP-62 NSCLC
  TGI: > 100 µM
HOP-92 NSCLC
  TGI: > 100 µM
HS 578T breast
  TGI: > 100 µM
HT29 colon
  TGI: > 100 µM
IGROV1 ovarian
  TGI: > 100 µM
K-562 leukemia
  TGI: > 100 µM
KM12 colon
  TGI: > 100 µM
LOX IMVI melanoma
  TGI: > 100 µM
M14 melanoma
  TGI: > 100 µM
MALME-3M melanoma
  TGI: > 100 µM
MCF7 breast
  TGI: > 100 µM
MDA-MB-231 breast
  TGI: > 100 µM
MDA-MB-435
  TGI: > 100 µM
MDA-N
  TGI: > 100 µM
MOLT-4 leukemia
  TGI: > 100 µM
NCI-H226 lung
  TGI: > 100 µM
NCI-H23 lung
  TGI: > 100 µM
NCI-H460 lung
  TGI: > 100 µM
NCI-H522 lung
  TGI: > 100 µM
NCI/ADR-RES ovarian
  TGI: > 100 µM
OVCAR-3 ovarian
  TGI: > 100 µM
OVCAR-4 ovarian
  TGI: > 100 µM
OVCAR-5 ovarian
  TGI: > 100 µM
OVCAR-8 ovarian
  TGI: > 100 µM
PC-3 prostate
  TGI: > 100 µM
RPMI-8226 leukemia
  TGI: > 100 µM
RXF 393 renal
  TGI: > 100 µM
SF-268 CNS
  TGI: > 100 µM
SF-295 CNS
  TGI: > 100 µM
SF-539 CNS
  TGI: > 100 µM
SK-MEL-2 melanoma
  TGI: > 100 µM
SK-MEL-28 melanoma
  TGI: > 100 µM
SK-MEL-5 melanoma
  TGI: > 100 µM
SK-OV-3 ovarian
  TGI: > 100 µM
SN12C renal
  TGI: > 100 µM
SNB-19 CNS
  TGI: > 100 µM
SNB-75 CNS
  TGI: > 100 µM
SW-620 colon
  TGI: > 100 µM
T-47D breast
  TGI: > 100 µM
TK-10 renal
  TGI: > 100 µM
U251 CNS
  TGI: > 100 µM
UACC-257 melanoma
  TGI: > 100 µM
UACC-62 melanoma
  TGI: > 100 µM
UO-31 renal
  TGI: > 100 µM
